“Also recorded” adds a separate entry of the source. Like-named read-outs stand apart in the source and are kept apart here.
What was measured:
[1] = tested on: HIV-1 (CEM cells chronically infected with HIV-1); test: Anti-retroviral activity in CEM cells chronically infected with HIV-1, soluble formazan assay; format: cell-based; conditions: Human immunodeficiency virus 1, CCRF-CEM
Experimental: Using the soluble formazan assay described by Weislow et al. (J. Nat'l. Cancer Inst., 81, 577-586 (1989)), CEM cells chronically infected with HIV-1 were used to assay the anti-retroviral activity of test compounds described herein. The concentration of compound that inhibits 50% of viral activity (EC50; determined as described in Weislow et al. (1989), supra) and the inhibition constant (Ki, as defined in Example 7) for the compound were determined.

[2] = Toxicity (IC50) in CEM cells, soluble formazan assay; conditions: human, cem cells
[3] = tested on: CEM cells; test: as above
[4] = tested on: α-1 acid glycoprotein; test: In vitro activity in the presence of α-1 acid glycoprotein
[5] = in vitro; conditions: human, cem cells
[6] = tested on: HIV-1; conditions: Example 13; literature values; cited from earlier work
[7] = comparison table, read-out: EC50

CC(C)C(NC(=O)OCc1ccccc1)C(=O)N[C@@H](Cc1ccccc1)[C@@H](O)[C@@H](O)[C@H](Cc1ccccc1)NC(=O)c1ccccc1NC(=O)OCc1ccccn1 (stereo partly shown) [DN-14]
EC50 ([1]; Example 13, CEM cells): 6.5 nM | EC50 ([1]; comparison table): 6 nM | selectivity ratio [2]: > 16700 | toxicity (from IC50/EC50) ([3]; Example 13): not toxic | IC50 ([3]; Example 13, unit inferred): > 100000 nM | IC50 ([3]; Homo sapiens, CCRF-CEM): > 100000 nM | IC50 ([3]; comparison table): > 100000 nM | in vitro activity in presence of α-1 acid glycoprotein [4]: not affected by the presence of α-1 acid glycoprotein; also recorded: unaffected in the presence of α-1 acid glycoprotein

CSC[C@H](NC(=O)COc1cccc2cnccc12)C(=O)N[C@@H](Cc1ccccc1)[C@H](O)C(=O)N1CSC[C@H]1C(=O)NC(C)(C)C [KNI-272, reference compound]
EC50 ([1]; Example 13, CEM cells, read-out: EC50): 4.2 nM | EC50 [1, 7]: 28 nM | selectivity ratio [5]: > 3570 | IC50 ([3]; Homo sapiens, CCRF-CEM): > 100000 nM

CC(C)[C@H](NC(=O)N(C)Cc1ccccn1)C(=O)N[C@@H](Cc1ccccc1)[C@H](O)[C@H](O)[C@H](Cc1ccccc1)NC(=O)[C@@H](NC(=O)N(C)Cc1ccccn1)C(C)C [A-77003, reference compound]
EC50 [1, 7]: 140 nM | selectivity ratio [5]: > 71 | EC50 [6]: 200 nM | IC50 ([3]; Homo sapiens, CCRF-CEM): > 10000 nM

— patent US5763464A, “Retroviral agents containing anthranilamide, substituted benzamide and other subunits, and methods of using same” (The United States of America as represented by the …, priority 1995, dated 1998)
